One assay concerns the target T1, Human M2 (Homo sapiens, UniProt P08172).
T1 construct: expressed in transfected cells; host or cells: CHO-K1
T1 sequence (P08172 1-466): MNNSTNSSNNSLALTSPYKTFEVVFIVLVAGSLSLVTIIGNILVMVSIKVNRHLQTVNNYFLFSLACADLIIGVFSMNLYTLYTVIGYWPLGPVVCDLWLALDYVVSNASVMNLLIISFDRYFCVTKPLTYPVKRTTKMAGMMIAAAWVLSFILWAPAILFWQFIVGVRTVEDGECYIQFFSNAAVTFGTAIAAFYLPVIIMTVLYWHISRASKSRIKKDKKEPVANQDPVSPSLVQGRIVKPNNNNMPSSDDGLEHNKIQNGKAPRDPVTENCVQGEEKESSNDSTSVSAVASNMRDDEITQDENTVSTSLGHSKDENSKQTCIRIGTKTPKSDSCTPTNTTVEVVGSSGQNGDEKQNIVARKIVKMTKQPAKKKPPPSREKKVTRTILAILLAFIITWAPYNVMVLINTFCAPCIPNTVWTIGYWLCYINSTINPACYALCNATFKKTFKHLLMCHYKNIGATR
As to the kind of experiment: M2 cell-based functional assay, calcium mobilization (selectivity). The note with it: for Emax at 30 µM: % ACh maximum at 30 μM; for EC50 / Human M2 EC50: M2 cell-based functional assay, calcium flux. On the procedure: (§1) The high throughput assay was employed to measure receptor-induced mobilization of intracellular calcium to determine compound activity. Test compound was added to cells expressing the muscarinic receptors that were loaded with calcium sensitive fluorescent dye. After a ˜2.5 minute incubation period, a submaximal (EC20) concentration of acetylcholine was added, and the response measured. This kinetic assay allows for simultaneous screening and potency determination of multiple pharmacological modes of action including agonist and potentiator activity. CHO-K1 cells stably expressing muscarinic receptors were plated in growth medium lacking G418 and hygromycin at 15,000 cells/20 μL/well in Greiner 384-well black-walled, tissue culture (TC)-treated, clear-bottom plates (Greiner Bio-One). Cells were incubated overnight at 37° C. and 5% CO2. The next day, calcium assay buffer (Hank's balanced salt solution (HBSS), 20 mM HEPES, 2.5 mM Probenecid, 4.16 mM sodium bicarbonate (Sigma-Aldrich, St. Louis, MO)) was prepared to dilute compounds, agonists, and Fluo-4-acetomethoxyester (Fluo-4-AM), fluorescent calcium indicator dye. Compounds were serially diluted 1:3 into 10 point concentration response curves in DMSO using the Bravo Liquid Handler (Agilent, Santa Clara, CA), transferred to a 384 well daughter plates using an Echo acoustic liquid handler (Beckman Coulter, Indianapolis, Indiana), and diluted in assay Buffer to a 2× final concentration. The agonist plates were prepared using acetylcholine (ACh, Sigma-Aldrich, St. Louis, MO) concentrations for the EC20 and ECMAX responses by diluting in assay buffer to a 5× final concentration. The 2× dye solution (2.3 μM) was prepared by mixing a 2.3 mM Fluo-4-AM stock in DMSO with 10% (w/v) pluronic acid F-127 in a 1:1 ratio in assay buffer. Using a microplate washer (BioTek, Winooski, VT), cells were washed with assay buffer for 3 times to remove medium. After the final wash, 20 μL of assay buffer remained in the cell plates. Immediately, 20 μL of the 2× dye solution (final 1.15 μM) was added to each well of the cell plate using a Multidrop Combi dispenser (Thermo Fisher, Waltham, MA). After cells were incubated with the dye solutions for 45 min at 37° C. in the presence of 5% CO2, the dye solutions were removed and replaced with assay buffer using a microplate washer, leaving 20 μL of assay buffer in the cell plate.
The prepared compound, agonist, and cell plates were placed inside the Functional Drug Screening System uCell (FDSS uCell, Hamamatsu, Japan) to measure the calcium flux. The triple add protocol was used to measure Ca kinetics; Compound, ACh for EC20, and ACh for EC80 adds in an order. Briefly, after establishment of a fluorescence baseline for 2 seconds (excitation, 480 nm; emission, 530 nm), first add occurred by adding 20 μL of test compound to the cells, and the response was measured for 140 seconds. This is followed by second add; 10 μL (5×) of an EC20 concentration of ACh agonist was added to the cells, and the response of the cells was measured for 125 seconds. Immediately, the third add occurred by adding […] (5×) of an EC80 concentration of ACh and the response of the cells was measured for 90 seconds. Acetylcholine-mediated maximum response (ECmax) was measured by adding 1 mM ACh as third add in the control wells. DMSO vehicle was added to the control wells in the first add for assessing ACh EC20, EC80, and ECmax responses. Calcium fluorescence was recorded as fold over basal fluorescence and raw data were normalized to the maximal response to ACh agonist. Agonist activity was analyzed as a concentration-dependent increase in calcium mobilization upon compound addition. Positive allosteric modulator activity was analyzed as a concentration-dependent increase in the EC20 acetylcholine response. Antagonist activity was analyzed as a concentration-dependent decrease in the EC80 acetylcholine response. […]
(In general: A change in cytosolic calcium serves as a functional read-out for many receptors and channels.)

The target in a further assay is T2, Human M4 (Homo sapiens, UniProt P08173).
T2 construct: expressed in transfected cells
T2 sequence (P08173 1-479): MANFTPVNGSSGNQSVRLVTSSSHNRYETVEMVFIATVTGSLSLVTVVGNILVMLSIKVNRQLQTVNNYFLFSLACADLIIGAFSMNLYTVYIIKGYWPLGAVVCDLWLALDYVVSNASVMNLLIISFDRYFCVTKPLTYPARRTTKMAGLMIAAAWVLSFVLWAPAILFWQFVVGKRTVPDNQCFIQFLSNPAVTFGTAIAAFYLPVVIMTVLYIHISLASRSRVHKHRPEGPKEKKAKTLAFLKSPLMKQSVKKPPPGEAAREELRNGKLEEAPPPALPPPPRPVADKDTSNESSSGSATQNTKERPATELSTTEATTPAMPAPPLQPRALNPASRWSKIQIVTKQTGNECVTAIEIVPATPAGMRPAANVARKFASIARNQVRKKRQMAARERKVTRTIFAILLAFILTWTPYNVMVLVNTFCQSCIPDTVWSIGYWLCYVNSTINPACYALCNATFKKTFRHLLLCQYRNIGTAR
In words: M4 cell-based functional assay, calcium mobilization, potentiation of ACh EC20. The note with it: for Emax at 30 µM: % ACh maximum at 30 μM; for EC50: CHO-K1 hM4-Gqi5 cells, calcium flux, ACh EC20. Here is the method: Human and rat M4 cDNAs, along with the chimeric G protein Gqi5, were transfected into Chinese hamster ovary (CHO-K1) cells purchased from the American Type Culture Collection using Lipofectamine2000. The transfected cells were subjected to selection antbiotic treatment to generate stable cell lines; G418 sulfate (1 mg/ml) for selecting M4 expressing cells and Hygromycin B (500 μg/mL) for selecting Gqi5 expressing cells. The resulting polyclones were further screened to obtain monoclones of hM4-Gqi5 and rM4-Gqi5 for compound screening assay. Stable monoclone cells were maintained in Ham's F-12 medium containing 10% heat-inactivated fetal bovine serum (FBS), 1× Antibiotic/Antimycotic, 20 mM HEPES, 500 μg/mL G418 sulfate, and 200 μg/mL Hygromycin B in 37° C. humidified incubators in the presence of 5% CO2.
as §1
The prepared compound, agonist, and cell plates were placed inside the Functional Drug Screening System uCell (FDSS uCell, Hamamatsu, Japan) to measure the calcium flux. The triple add protocol was used to measure Ca kinetics; Compound, ACh for EC20, and ACh for EC80 adds in an order. Briefly, after establishment of a fluorescence baseline for 2 seconds (excitation, 480 nm; emission, 530 nm), first add occurred by adding 20 μL of test compound to the cells, and the response was measured for 140 seconds. This is followed by second add; 10 μL (5×) of an EC20 concentration of ACh agonist was added to the cells, and the response of the cells was measured for 125 seconds. […]

The term Emax denotes the maximal effect, on the per cent scale that the assay sets. One may read the EC50 as the concentration needed to bring the measured effect to its halfway point. With `[2H]C1([2H])Oc2ccc(OC3CCN(c4nc5c(cc4C)C(=O)OC5)CC3)cc2OC1([2H])[2H]` [Compound 8, 2-(4-((2,3-dihydrobenzo[b][1,4]dioxin-6-yl-2,2,3,3-d4)oxy)piperidin-1-yl)-3-methylfuro[3,4-b]pyridin-5(7H)-one], the results for the Emax at 30 µM at Human M2 and at Human M4 were 56% and 104%, respectively. In addition, the EC50 on Human M2 was 494 nM; on Human M4, 3 nM.

Consider `[2H]C1([2H])Oc2ccc(OC3CCN(c4nc5nn(CCOC)c(=O)n5cc4C)CC3)cc2OC1([2H])[2H]` [Compound A3, 7-(4-((2,3-dihydrobenzo[b][1,4]dioxin-6-yl-2,2,3,3-d4)oxy)piperidin-1-yl)-2-(2-methoxyethyl)-6-methyl-[1,2,4]triazolo[4,3-a]pyrimidin-3(2H)-one], for which, at Human M2, the Emax at 30 µM worked out at 55% and the EC50 came out at 5410 nM. On Human M4, the maximum response (Emax) at 30 µM stood at 79% and the concentration for a half-maximal effect (EC50) was 8 nM.

Consider `[2H]C1([2H])Oc2ccc(OC3CCN(c4nc5n[nH]c(=O)n5c5c4CCCC5)CC3)cc2OC1([2H])[2H]` [Compound A17, 5-(4-((2,3-dihydrobenzo[b][1,4]dioxin-6-yl-2,2,3,3-d4)oxy)piperidin-1-yl)-6,7,8,9-tetrahydro-[1,2,4]triazolo[4,3-a]quinazolin-1(2H)-one], for which the “Human M2 EC50” value on Human M2 is given as “Inactive”. Further, at Human M4, the Emax at 30 µM came out at 87% and the EC50 is 64 nM.

With `[2H]C1([2H])Oc2ccc(O[C@H]3CCN(c4nc5c(cc4C)C(=O)NC5)[C@H](C)C3)cc2OC1([2H])[2H]` [Compound 4, 2-((2R,4S)-4-((2,3-dihydrobenzo[b][1,4]dioxin-6-yl-2,2,3,3-d4)oxy)-2-methylpiperidin-1-yl)-3-methyl-6,7-dihydro-5H-pyrrolo[3,4-b]pyridin-5-one], the figures for the Emax at 30 µM at Human M2 and at Human M4 were 57% and 85%, respectively. Further, the figures for the EC50 on Human M2 and on Human M4 were 5870 nM and 11 nM, respectively.

As to `[2H]C1([2H])Oc2ccc(OC3CCN(c4nc5n[nH]c(=O)n5cc4C)CC3)cc2OC1([2H])[2H]` [Compound A1, 7-(4-((2,3-dihydrobenzo[b][1,4]dioxin-6-yl-2,2,3,3-d4)oxy)piperidin-1-yl)-6-methyl-[1,2,4]triazolo[4,3-a]pyrimidin-3(2H)-one], at Human M2, the Emax at 30 µM was determined as 78% and the EC50 is 367 nM. In addition, on Human M4, the Emax at 30 µM was found to be 100% and the EC50 was 5 nM.

For the compound `[2H]C1([2H])Oc2ccc(OC3CCN(c4nc5nn(C)c(=O)n5c5c4CCC5)CC3)cc2OC1([2H])[2H]` [Compound A14, 5-(4-((2,3-dihydrobenzo[b][1,4]dioxin-6-yl-2,2,3,3-d4)oxy)piperidin-1-yl)-2-methyl-2,6,7,8-tetrahydro-1H-cyclopenta[e][1,2,4]triazolo[4,3-a]pyrimidin-1-one], the figures for the Emax at 30 µM at Human M2 and on Human M4 were 60% and 84%, respectively. Further, the EC50 on Human M2 amounted to 2230 nM; at Human M4, 3 nM.

With `[2H]C1([2H])Oc2ccc(OC3CCN(c4nc5nn([C@@H]6CCOC6)c(=O)n5cc4C)CC3)cc2OC1([2H])[2H]` [Compound A4, (R)-7-(4-((2,3-dihydrobenzo[b][1,4]dioxin-6-yl-2,2,3,3-d4)oxy)piperidin-1-yl)-6-methyl-2-(tetrahydrofuran-3-yl)-[1,2,4]triazolo[4,3-a]pyrimidin-3(2H)-one], at Human M2, the Emax at 30 µM was found to be 68% and the EC50 is 1380 nM. Besides, at Human M4, the Emax at 30 µM was 88% and the EC50 was 9 nM.

On to `[2H]C1([2H])Oc2ccc(OC3CCN(c4nc5c(c(C)c4C)C(=O)NC5)CC3)cc2OC1([2H])[2H]` [Compound 13, 2-(4-((2,3-dihydrobenzo[b][1,4]dioxin-6-yl-2,2,3,3-d4)oxy)piperidin-1-yl)-3,4-dimethyl-6,7-dihydro-5H-pyrrolo[3,4-b]pyridin-5-one], for which, at Human M2, the “Human M2 EC50” value was “inactive”. On Human M4, the Emax at 30 µM is 101% and the EC50 came to 4 nM.

Turning to `[2H]C1([2H])Oc2ccc(OC3CCN(c4nc5nn(CC)c(=O)n5cc4C)CC3)cc2OC1([2H])[2H]` [Compound A2, 7-(4-((2,3-dihydrobenzo[b][1,4]dioxin-6-yl-2,2,3,3-d4)oxy)piperidin-1-yl)-2-ethyl-6-methyl-[1,2,4]triazolo[4,3-a]pyrimidin-3(2H)-one], on Human M2, the Emax at 30 µM was 70% and the EC50 came out at 884 nM. Moreover, on Human M4, the Emax at 30 µM amounted to 82% and the EC50 was 2 nM.

For `[2H]C1([2H])CC(Oc2ccc3c(c2)OCCO3)CC([2H])([2H])N1c1nc2c(cc1C)C(=O)NC2` [Compound 11, 2-(4-((2,3-dihydrobenzo[b][1,4]dioxin-6-yl)oxy)piperidin-1-yl-2,2,6,6-d4)-3-methyl-6,7-dihydro-5H-pyrrolo[3,4-b]pyridin-5-one], the figures for the Emax at 30 µM at Human M2 and on Human M4 were 60% and 73%, respectively. For the same compound, the EC50 is 508 nM at Human M2 and 5 nM at Human M4.

The values above are taken from patent US12552790B2, “Positive modulators of the muscarinic acetylcholine receptor M4” (Vanderbilt University, priority 2023, dated 2026).
